Where two headings read alike, the source gives them in different places. Where a SMILES comes first, the peptide text is derived from it. Where no end group is shown, it is not given here.
Columns and labels:
[1] = Solubilization of 1 mg/mL peptides in culture medium, DMSO or urea; assay type: physicochemical; conditions: for Resuspension with DMSO: DMSO 2% of final volume of 1 mg/mL stock and clean medium, after sonication
Protocol: In order to measure the capacity of the peptides to inhibit IL-10, it is necessary for them to be in solution in the culture medium in which the proliferation assay with MC/9 cells is conducted. To that end, an attempt was first made to dissolve the peptides in complete medium at the concentration of 1 mg/mL. Due to the fact that, of the 26 peptides of Table 1, only 10 were soluble and 2 were partially soluble in these conditions (Table 3), it was necessary to improve the solubility of the remaining peptides by adding different proportions of dimethyl sulfoxide (DMSO) or urea. Other solubilizing agents, such as guanidine hydrochloride, ethanol, methanol, isopropanol, dimethylformamide (DMF), acetone, acetonitrile, ammonia and acetic acid were also tested, but due to the fact that they were not very effective or toxic for the cells, their use was discarded. For the purpose of limiting as much as possible the toxicity of DMSO or urea, the concentration of both agents in the culture medium was kept as low as possible compatible with the in vitro assay. Thus, the maximum concentration of solubilizing agent to be added which allows conducting the in vitro proliferation assay of MC/9 cells was first determined. As indicated above, 1, 0.5, 0.1, 0.05, 0.01, 0.005 and 0.001% acetic acid, ammonia, DMSO, DMF, acetone, acetonitrile, isopropanol, methanol and ethanol and 2, 1, 0.5, 0.250, 0.125, 0.062 and 0.031 M urea and guanidine hydrochloride were tested.
Guanidine hydrochloride was very toxic in all tested concentrations. […] In the case of urea, the limit concentration was 125 mM, and for ammonia, 0.2% (maximum tested). In relation to the alcohols, they were compatible up to 1% (maximum) and acetone and acetonitrile seemed to induce MC/9 cell proliferation. DMSO: • The resuspension of the peptides identified as SEQ ID NO: 5, SEQ ID NO: 6, SEQ ID NO: 9, SEQ ID NO: 12, SEQ ID NO: 15 and SEQ ID NO: 16 with DMSO (2% of the final volume of the 1 mg/mL stock) and clean medium was tested. After subjecting them to sonication, all of them were still cloudy, except the peptide identified as SEQ ID NO: 16. Methanol/Ethanol • To dissolve peptides using these alcohols, it is necessary to use them at 100% and at this concentration they are toxic for MC/9 cells. They are toxic even at 70%. Urea • The peptides identified as SEQ ID NO: 6, SEQ ID NO: 16, SEQ ID NO: 17, SEQ ID NO: 18 and SEQ ID NO: 20 were dissolved in 8 M urea (final concentration 0.8 M in 1 mg/mL) and complete medium. Urea is relatively toxic (cpm without urea 1.128, with 120 mM urea 109, with 80 mM 308 and with 20 mM 800, but the window is maintained).
Of the total of 39 peptides indicated, 11 (in bold print) could not be solubilized with any of the indicated conditions, therefore they could not be tested in the in vitro assay.
The peptides which could not be solubilized with any of the tested conditions are indicated in bold print. part S: partially soluble; S: soluble; I: insoluble

MC/9 cells = experiment: Toxicity: inhibition of mGM-CSF-induced MC/9 cell proliferation; assay type: cell-based, mouse; conditions: inhibition of proliferation induced by 0.01 ng/mL mGM-CSF
Excerpt: The addition of peptides with the capacity to inhibit the activity of IL-10 to the MC/9 cell culture, to which exogenous IL-10 has been added, has the effect of inhibiting the proliferation of these cells due to the fact that IL-10 promotes the proliferation thereof. However, the addition of a peptide or any component to the culture (used to improve peptide solubility) which was toxic for MC/9 cells would also have the effect of inhibiting cell proliferation. […] For this purpose, an assay in parallel of the peptides using mouse granulocyte-monocyte colony-stimulating factor (mGM-CSF) (which also promotes MC/9 cell proliferation) instead of IL-10 was conducted. The concentration of mGM-CSF used was 0.01 ng/mL. In this case, IL-4 was not used as co-stimulus. The toxicity was expressed as the percentage of inhibition of the proliferation induced by mGM-CSF.
In the case of the peptides dissolved in urea, when analyzing both the IL-10 inhibition and the toxicity, negative, positive controls and controls with antibody with the concentrations of urea present in the peptide sample (120 mM, 80 mM and 20 mM) as well as controls without urea were included. The percentage of inhibition at each concentration of peptide was calculated comparing the cpm values of the sample with the values of the controls which contained the same concentration of urea.

[2] = 1 mg/mL peptide, read-out: Solubility, Complete medium
[3] = 1 mg/mL peptide, read-out: Solubility, 0.8 M UREA

ARWMHRHHGWSDRHR [compound 2]
solubility [1, 2]: > 1000 µg/mL

PFVVSDIAFMGLFYD [compound 3]
solubility [1, 2]: < 1000 µg/mL

WSLLRIVYNRHSHSK [compound 16]
solubility [1, 3]: > 1000 µg/mL | solubility ([1]; 1 mg/mL peptide, read-out: Solubility, 2% DMSO): < 1000 µg/mL | solubility [1, 2]: < 1000 µg/mL

RFYHADMLLRHVLMM [compound 5]
Solubility, 0.8 M UREA ([1]; 1 mg/mL peptide): Turbidity | Solubility, 2% DMSO ([1]; 1 mg/mL peptide): Turbidity | solubility [1, 2]: < 1000 µg/mL

GRVPSMFGGHFFFSR [compound 15]
Solubility, 0.8 M UREA ([1]; 1 mg/mL peptide): Turbidity | Solubility, 2% DMSO ([1]; 1 mg/mL peptide): Turbidity | solubility [1, 2]: < 1000 µg/mL

CC(C)[C@H](NC(=O)[C@H](C)NC(=O)[C@@H](NC(=O)[C@@H]1CCCN1C(=O)[C@H](Cc1c[nH]cn1)NC(=O)[C@H](CCCNC(=N)N)NC(=O)[C@H](CCCNC(=N)N)NC(=O)[C@H](Cc1ccccc1)NC(=O)[C@H](Cc1c[nH]cn1)NC(=O)[C@H](Cc1ccccc1)NC(=O)[C@H](CS)NC(=O)[C@H](CCCNC(=N)N)NC(=O)[C@H](Cc1c[nH]cn1)NC(=O)[C@@H](N)CS)C(C)C)C(=O)N[C@@H](Cc1ccccc1)C(=O)O [P9] (H-CHRCFHFRRHPVAVF-OH; N-terminus and C-terminus assumed)
solubility [1]: insoluble | Resuspension with DMSO [1]: still cloudy

HRWMPHVFAVRQGAS [compound 7]
solubility [1, 2]: > 1000 µg/mL

GAGVLTPFTWRRFHM [compound 10]
solubility [1, 2]: > 1000 µg/mL

IFRVLSRMLPGTSVI [compound 13]
solubility [1, 2]: > 1000 µg/mL

GVLSSIFSWRLVALH [P18]
Resuspension with DMSO [1]: still cloudy

FSWYFRHHRLMVAGP [P24]
toxicity for MC/9 cells (MC/9 cells): partially toxic

ARFPKELRGSVRSAH [compound 14]
solubility [1, 2]: > 1000 µg/mL

LFLLSGVFVPDLHEG [compound 24]
Solubility, 0.8 M UREA ([1]; 1 mg/mL peptide): Turbidity | solubility [1, 2]: < 1000 µg/mL

HGFFAGGLAHWHGHR [compound 20]
solubility [1, 3]: > 1000 µg/mL | solubility [1, 2]: < 1000 µg/mL

RMLGFMSGSWRTPVR [compound 11]
solubility [1, 2]: > 1000 µg/mL

HGFFAGGLAHWHGHR [P26]
toxicity for MC/9 cells (MC/9 cells): partially toxic

WAYYHAGHSSFAVWT [P14]
Resuspension with DMSO [1]: still cloudy

RGWILDVVYLYPGPL [compound 17]
solubility [1, 3]: < 1000 µg/mL | solubility [1, 2]: < 1000 µg/mL

WAYYHAGHSSFAVWT [compound 9]
Solubility, 0.8 M UREA ([1]; 1 mg/mL peptide): Turbidity | Solubility, 2% DMSO ([1]; 1 mg/mL peptide): Turbidity | solubility [1, 2]: < 1000 µg/mL

GVLSSIFSWRLVALH [compound 12]
Solubility, 0.8 M UREA ([1]; 1 mg/mL peptide): Turbidity | Solubility, 2% DMSO ([1]; 1 mg/mL peptide): Turbidity | solubility [1, 2]: < 1000 µg/mL

HRHFRWLNGMPRLLG [compound 25]
solubility [1, 2]: < 1000 µg/mL

GRFRHYSMLRHHSIR [compound 19]
solubility [1, 2]: > 1000 µg/mL

TRHRHVPRFLPLRHV [P13]
solubility [1]: soluble

GRVPSMFGGHFFFSR [P21]
Resuspension with DMSO [1]: still cloudy

CC(C)[C@H](NC(=O)[C@H](C)NC(=O)[C@@H](NC(=O)[C@@H]1CCCN1C(=O)[C@H](Cc1c[nH]cn1)NC(=O)[C@H](CCCNC(=N)N)NC(=O)[C@H](CCCNC(=N)N)NC(=O)[C@H](Cc1ccccc1)NC(=O)[C@H](Cc1c[nH]cn1)NC(=O)[C@H](Cc1ccccc1)NC(=O)[C@H](CS)NC(=O)[C@H](CCCNC(=N)N)NC(=O)[C@H](Cc1c[nH]cn1)NC(=O)[C@@H](N)CS)C(C)C)C(=O)N[C@@H](Cc1ccccc1)C(=O)O [compound 6] (H-CHRCFHFRRHPVAVF-OH; N-terminus and C-terminus assumed)
Solubility, 2% DMSO ([1]; 1 mg/mL peptide): Turbidity | solubility [1, 3]: > 1000 µg/mL | solubility [1, 2]: < 1000 µg/mL

RFYHADMLLRHVLMM [P8]
Resuspension with DMSO [1]: still cloudy

AKVPSFRRSSLGSVR [compound 4]
solubility [1, 2]: > 1000 µg/mL

TRHRHVPRFLPLRHV [compound 8]
solubility [1, 2]: > 1000 µg/mL

RKLRPHWLHFHPVAV [compound 1]
solubility [1, 2]: > 1000 µg/mL

CC(C)C[C@H](NC(=O)CNC(=O)[C@H](C)NC(=O)[C@H](CS)NC(=O)[C@@H](NC(=O)[C@H](Cc1ccccc1)NC(=O)[C@H](Cc1ccccc1)NC(=O)[C@H](CO)NC(=O)[C@@H](N)CCC(=O)O)C(C)C)C(=O)N[C@@H](CS)C(=O)N[C@@H](CCCNC(=N)N)C(=O)N[C@@H](CC(C)C)C(=O)N[C@@H](CCC(N)=O)C(=O)N1CCC[C@H]1C(=O)N[C@@H](Cc1ccc(O)cc1)C(=O)O [compound 23] (H-ESFFVCAGLCRLQPY-OH; N-terminus and C-terminus assumed)
Solubility, 0.8 M UREA ([1]; 1 mg/mL peptide): Turbidity | solubility [1, 2]: < 1000 µg/mL

FSWYFRHHRLMVAGP [compound 18]
solubility [1, 3]: > 1000 µg/mL | solubility [1, 2]: < 1000 µg/mL

FRSFHYHTGRWHWLP [compound 22]
solubility [1, 2]: < 1000 µg/mL

CC(C)C[C@H](NC(=O)[C@H](Cc1ccccc1)NC(=O)[C@H](C)NC(=O)[C@H](CC(C)C)NC(=O)[C@@H](NC(=O)[C@H](Cc1ccccc1)NC(=O)[C@H](CC(C)C)NC(=O)[C@H](Cc1c[nH]cn1)NC(=O)[C@H](CS)NC(=O)[C@H](CS)NC(=O)[C@H](CCCNC(=N)N)NC(=O)[C@H](Cc1c[nH]cn1)NC(=O)[C@H](C)N)[C@@H](C)O)C(=O)N[C@@H](Cc1ccccc1)C(=O)N[C@@H](C)C(=O)O [compound 21] (H-AHRCCHLFTLAFLFA-OH; N-terminus and C-terminus assumed)
Solubility, 0.8 M UREA ([1]; 1 mg/mL peptide): Turbidity | solubility [1, 2]: < 1000 µg/mL

CC[C@H](C)[C@H](NC(=O)[C@H](CC(C)C)NC(=O)[C@H](Cc1ccccc1)NC(=O)CNC(=O)[C@@H](NC(=O)[C@H](CC(C)C)NC(=O)[C@H](C)NC(=O)[C@H](CO)NC(=O)[C@H](CS)NC(=O)CN)C(C)C)C(=O)N[C@@H](CC(C)C)C(=O)N[C@@H](CC(C)C)C(=O)N[C@@H](CS)C(=O)N[C@@H](CS)C(=O)N[C@@H](CCSC)C(=O)O [compound 26] (H-GCSALVGFLILLCCM-OH; N-terminus and C-terminus assumed)
Solubility, 0.8 M UREA ([1]; 1 mg/mL peptide): Turbidity | solubility [1, 2]: < 1000 µg/mL
